Measured values taken from patent US8771680B2, “Topical co-enzyme Q10 formulations and methods of use” (University of Miami, priority 2004, dated 2014).

Key:
[1] = of cancer patients having progressive disease before treatment; cited from earlier work
[2] = test system: human breast adenocarcinoma cell line (SK-BR-3); test: Proliferation of breast adenocarcinoma cell line SK-BR-3 in in vitro culture; assay type: cell-based
Description: (§1) Retrieve Q10 stock from −20° C. storage and weigh out approximately 4.4 mg. Transfer Q10 into a 25 mL centrifuge tube. Add 1 mL 2-propanol to centrifuge tube. Vortex and dip in hot water bath (55° C.) to promote dissolution. Add 9 mL of media to centrifuge tube. Vortex and dip in hot water bath (55° C.) if necessary to create a homogenous solution. […] Make serial dilutions to treatment concentrations.
(§2) After subculture (per subculturing cells protocol described above), pipet the desired volume suspension of cells to count (0.25-1 mL) into Coulter Counter Vial (Beckman, Inc.) using an automatic pipette. Insure that the Beckman Coulter® Z1 Cell and Particle Counter is clean by using Coulter CLENZ (Beckman, Inc., Fullerton, Calif.) to flush. Flush apparatus once with Isoton II Diluent. Add Isoton II Diluent to vial containing cells for a total volume of 10 mL. Use output mode of apparatus to count cells twice to ensure accuracy. Average counts together and calculate total cell number per volume.
(§3) Acclimate reagents to 37° C. in water bath. Make stock solution of Q10 as per protocol described above for creating a homogenous solution of Q10 in media. Perform serial dilutions to desired concentrations. Place 2 mL media into respective wells. Subculture flasks as per protocol described above for subculturing cells. […]

[3] = test system: human breast adenocarcinoma cell line (BT-20); test: Proliferation of breast adenocarcinoma cell line BT-20 in in vitro culture; assay type: cell-based
Description: as §1, §2, §3

normal cells (nFIB) = test: Apoptosis assay (Annexin-VPE) in normal cells; assay type: cell-based, human; settings: culture of normal cells
Description: (§4) Cell lines used in the assay were SK-Mel28 and nFIB. Cells (SK-Mel28 and nFIB) were seeded (5×10^4 cells/well) into wells containing either solely medium or medium with treatment and placed in an incubator at 37° C., 5% CO2, and under humidified conditions for 48 hours. Each condition was performed in duplicate and was subjected to the following protocol:
(§5) Apoptosis Analysis as Per Protocol of BD Pharmingen Annexin-VPE Protocol
(§6) Reagents include Annexin V-PE (BD Pharmingen, San Diego, Calif.), 7-AAD (BD Pharmingen, San Diego, Calif.), binding buffer (10×: 0.1 M Hepes/NaOH, 1.4 M NaCl, 25 mM CaCl2) [diluted to 1× (9 mL PBS and 1 mL binding buffer) for use in experiment] (BD Pharmingen, San Diego, Calif.), Trypsin-EDTA (Gibco, Grand Island, N.Y.), and desired Media.
(§7) Add 0.5 mL trypsin to each well, remove trypsin after approximately 10 seconds, and add 0.5 mL trypsin to each well. Place wells in an incubator, observe level of detachment under microscope after 4 minutes, and gently tap sides and bottom to aid in detachment. When cells detach, neutralize with 0.5 mL serum-supplemented medium. Transfer cell solution to centrifuge tubes, centrifuge cells at 2000 RPM for 5 minutes, aspirate supernatant, resuspend in 6 mL PBS, and split 6 mL into three centrifuge tubes (2 mL each). […]

[4] = test system: human neonatal fibroblasts; test: Proliferation of neonatal fibroblasts in in vitro culture; assay type: cell-based; settings: 48 hour in vitro culture
Description: as §1, §2, §3

[5] = test system: human hepatocellular carcinoma cell line (Hep 3B); test: Proliferation of hepatocellular carcinoma cell line Hep 3B in in vitro culture; assay type: cell-based
Description: as §1, §2, §3

SK-MEL28 tumors = test: Effect of topical formulation of Coenzyme Q10 on SK-MEL28 tumors in mice; assay type: in vivo
Description: Subculture flasks as per the cell subculturing protocol described above. After aspirating supernatant, combine pellets from each flask diluted slightly with PBS with a 5 mL pipette. Dilute final cell suspension to contain approximately ten million cells per 100 μL. Transfer cell suspension to micro-centrifuge tubes (2 mL). Place in ice immediately and leave in ice until injected. Anesthetize mice via an intraperitoneal injection with 0.3 cc Aventin. Inoculate each animal subcutaneously with 0.1 cc cell suspension per site. Transfer any remaining cells into a 15 mL centrifuge tube. Dilute to 10 mL with medium. Centrifuge at 2500 RPM for 8 minutes. Aspirate supernatant. Add 10 mL media to centrifuge tube. Create a homogenous cell suspension by pipetting and vortexing. Seed cells in a T75 flask to ensure experimental cell viability.
Melanoma tumors were induced in mice by SK-MEL28 injection into the subcutaneous layer. The animal study consisted of both a control and treatment group each containing four mice. The mice were inoculated with two tumors and the graph of FIG. 14 represents the resulting mean mass for the tumors in each mouse. A topical formulation of Coenzyme Q10 (A 1.0% and 1.5% formulation was tested) was applied to the tumors in the treatment group daily for a period of 30 days. After which, the tumors were excised and the mass was determined. […]

[6] = test system: skin cancer cells (SK-Mel28); test: Apoptosis assay (Annexin-VPE) in skin cancer cells; assay type: cell-based, human; settings: culture of skin cancer cells
Description: as §4, §5, §6, §7

[7] = test system: human neonatal keratinocytes; test: Proliferation of neonatal keratinocytes in in vitro culture; assay type: cell-based; settings: 48 hour in vitro culture
Description: as §1, §2, §3

[8] = test system: human prostatic adenocarcinoma cell line (PC-3); test: Apoptosis analysis by JC-1 stain (mitochondrial polarization, flow cytometry); assay type: cell-based; settings: PC-3 cells, 0.2 mM Q10, 24 h
Description: FIG. 28 is a graph showing the effect of CoQ10 on mitochondrial polarization (an indicator of apoptosis) of a human prostatic adenocarcinoma cell line (PC-3) in a 24 hour in vitro culture. PC-3 cell cultures were treated with Q10 at 0.05, 0.1 and 0.2 mM concentrations for 24 h and then treated with JC-1, at 10 microgram/ml., for 30 min. Uptake and levels of green fluorescence was measured in a flow cytometer, FL1 (green fluor.).
Apoptosis was measured using a mitochondrial membrane dye JC-1, 5,5′,6,6′-tetrachloro-1,1′,3,3′-tetraethyl-benzimidazolylcarbocyanine chloride (Molecular Probe, Eugene, Oreg.). Treatments consisting of DMEM-F12 media supplemented with 1×PSA, 5% FBS and 0, 50, 100, and 200 μM concentrations of coenzyme Q10 were prepared in 60×15 mm tissue culture dishes (Costar-Cambride, Mass.). PC-3 cells were seeded at 500,000 cells per dish and incubated for 24 hours. The cells were trypsinized using 2 mL trypsin-EDTA and subjected to centrifugation at 2,500 rpm for 8 minutes. They were resuspended in 1 mL of Ham's F12 medium lacking serum and phenol red (Cascade Biologics, Inc-Portland, Oreg.) and promptly placed on ice. A 1 mg/ml stock solution of JC-1 was prepared using sterile DMSO and 10 μL was added to each cell suspension while gently vortexing. […] The samples were analyzed by flow cytometry for changes in uptake of fluorescent dye. […]

[9] = test system: breast adenocarcinoma cell line (MCF-7); test: Proliferation of breast adenocarcinoma cell line MCF-7 in in vitro culture; assay type: cell-based
Description: as §1, §2, §3

squamous carcinoma cells = test: Proliferation of squamous carcinoma cells in in vitro culture; assay type: cell-based; settings: 48 hour in vitro culture
Description: as §1, §2, §3

[10] = test system: human breast adenocarcinoma cell line (MDA-MB-468); test: Proliferation of breast adenocarcinoma cell line MDA-MB-468 in in vitro culture; assay type: cell-based
Description: as §1, §2, §3

[11] = test system: human melanoma cell line (SKMEL28); test: Proliferation of melanoma cell line in in vitro culture (cell counting); assay type: cell-based
Description: as §1, §2, §3

[12] = test system: human prostatic adenocarcinoma cell line (PC-3); test: Proliferation of prostatic adenocarcinoma cell line PC-3 in in vitro culture; assay type: cell-based
Description: as §1, §2, §3

[13] = test system: human osteosarcoma cell line (143B); test: Proliferation of osteosarcoma cell line 143B in in vitro culture; assay type: cell-based
Description: as §1, §2, §3

NC(=O)c1nnn(Cc2cc(Cl)c(C(=O)c3ccc(Cl)cc3)c(Cl)c2)c1N [CAI, carboxyamidotriazole]
disease stabilization [1]: 49%

COC1=C(OC)C(=O)C(C/C=C(\C)CC/C=C(\C)CC/C=C(\C)CC/C=C(\C)CC/C=C(\C)CC/C=C(\C)CC/C=C(\C)CC/C=C(\C)CC/C=C(\C)CCC=C(C)C)=C(C)C1=O [CoQ10, Coenzyme Q10]
proliferation ([2]; SK-BR-3, 48 hour in vitro culture): reduces the proliferation | proliferation ([2]; SK-BR-3, 72 hour in vitro culture): reduces the proliferation | proliferation ([3]; BT-20, 48 hour in vitro culture): reduces the proliferation | proliferation ([3]; BT-20, 72 hour in vitro culture): reduces the proliferation | rate of apoptosis (normal cells (nFIB)): but not normal cells | proliferation [4]: increases the proliferation | proliferation ([5]; 48 hour in vitro culture): reduces the proliferation | proliferation ([5]; 72 hour in vitro culture): reduces the proliferation | Average tumor mass decreased as compared to the control (SK-MEL28 tumors; 1.0% CoQ10 topically for 30 days): 52.3% | Average tumor mass decreased as compared to the control (SK-MEL28 tumors; 1.5% CoQ10 topically for 30 days): 54.0% | rate of apoptosis [6]: increase the rate of apoptosis | proliferation [7]: increases the proliferation | green fluorescence of JC-1 (mitochondrial polarization, an indicator of apoptosis) [8]: significant increase | proliferation ([9]; MCF-7, 48 hour in vitro culture): reduces the proliferation | proliferation ([9]; MCF-7, 72 hour in vitro culture): reduces the proliferation | proliferation (squamous carcinoma cells): reduces the proliferation | proliferation ([10]; MDA-MB-468, 48 hour in vitro culture): reduces the proliferation | proliferation ([10]; MDA-MB-468, 72 hour in vitro culture): reduces the proliferation | proliferation ([11]; SKMEL28, 36 hour in vitro culture): reduces the proliferation | proliferation ([11]; SKMEL28, 48 hour in vitro culture): reduces the proliferation | proliferation ([12]; PC-3, 48 hour in vitro culture): reduces the proliferation | proliferation ([12]; PC-3, 72 hour in vitro culture): reduces the proliferation | proliferation ([13]; 48 hour in vitro culture): reduces the proliferation | proliferation ([13]; 72 hour in vitro culture): reduces the proliferation
